Measurements published in patent publication US6737383B1, “Herbicidal oxadiazolidines” (priority 1999, dated 2004).

Experiments:
pigweed = experiment: Test B pre/postemergence pigweed; type: in vivo, Amaranthus retroflexus
Outline: (§1)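 Herbicidal effect was estimated by eye on a ten-point control scale after plants spent twelve to sixteen days in a greenhouse following soil or foliar treatment. Foliar sprays targeted plants at one to four leaves; all doses were formulated in a non-phytotoxic solvent with surfactant.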

cocklebur = experiment: Test B pre/postemergence cocklebur; type: in vivo, Xanthium strumarium
Outline: as §1

purple nutsedge = experiment: Test B pre/postemergence purple nutsedge; type: in vivo, Cyperus rotundus
Outline: as §1

bedstraw = experiment: Test B pre/postemergence bedstraw; type: in vivo, Galium aparine
Outline: as §1

morningglory = experiment: Test B pre/postemergence morningglory; type: in vivo, Ipomoea hederacea
Outline: as §1

corn = experiment: Test B pre/postemergence corn; type: in vivo, Zea mays
Outline: as §1

crabgrass = experiment: Test B pre/postemergence crabgrass; type: in vivo, Digitaria sanguinalis
Outline: as §1

duck salad = experiment: Test B flood test duck salad; type: in vivo, Heteranthera limosa
Outline: (§2)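 Read-out is a visual response score from 0 (no effect) to 10 (complete control), assigned by comparison with untreated controls. Treatment was applied at the 2-leaf stage, and plants stayed in the greenhouse for twelve to sixteen days before scoring.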

velvetleaf = experiment: Test B pre/postemergence velvetleaf; type: in vivo, Abutilon theophrasti
Outline: as §1

blackgrass = experiment: Test B pre/postemergence blackgrass; type: in vivo, Alopecurus myosuroides
Outline: as §1

rape = experiment: Test B pre/postemergence rape; type: in vivo, Brassica napus
Outline: as §1

wild oat = experiment: Test B pre/postemergence wild oat; type: in vivo, Avena fatua
Outline: as §1

surinam grass = experiment: Test B pre/postemergence surinam grass; type: in vivo, Brachiaria decumbens
Outline: as §1

wheat = experiment: Test B pre/postemergence wheat; type: in vivo, Triticum aestivum
Outline: as §1

sugar beet = experiment: Test B pre/postemergence sugar beet; type: in vivo, Beta vulgaris
Outline: as §1

smallflower flatsedge = experiment: Test B flood test smallflower flatsedge; type: in vivo, Cyperus difformis
Outline: as §2

[1] = Preemergence, Rate 62 g/ha, scale of 0 to 10 where 0 is no effect and 10 is complete control
[2] = Preemergence, Rate 250 g/ha, scale of 0 to 10 where 0 is no effect and 10 is complete control
[3] = Preemergence, Rate 500 g/ha, scale of 0 to 10 where 0 is no effect and 10 is complete control
[4] = Rate 125 g/ha, Postemergence, scale of 0 to 10 where 0 is no effect and 10 is complete control
[5] = Rate 125 g/ha, Preemergence, scale of 0 to 10 where 0 is no effect and 10 is complete control
[6] = Rate 250 g/ha, Postemergence, scale of 0 to 10 where 0 is no effect and 10 is complete control
[7] = Rate 500 g/ha, Postemergence, scale 0 to 10, 0 no effect, 10 complete control
[8] = Rate 62 g/ha, Postemergence, scale of 0 to 10 where 0 is no effect and 10 is complete control
[9] = Rate 62 g/ha, headed Pre-emergence (flood test species), scale 0 to 10 (0 no effect, 10 complete control)
[10] = Rate 125 g/ha, Pre-emergence, flood test species, scale 0 to 10 where 0 is no effect and 10 is complete control
[11] = Rate 250 g/ha, Pre-emergence, flood-test species, scale 0 to 10, 0 is no effect, 10 is complete control
[12] = Rate 500 g/ha, Pre-emergence, flood test species, scale 0 to 10 (0 no effect, 10 complete control)

CC(C)N(C(=O)n1oc(=O)n(CC(C)(C)C)c1=O)c1ccccc1 [Compound 276]
Redroot pigweed plant response rating (pigweed; [1]): 0 | Redroot pigweed plant response rating (pigweed; [2]): 2 | Plant response rating, Redroot pigweed (pigweed; [3]): 4 | Redroot pigweed plant response rating (pigweed; [4]): 0 | Redroot pigweed plant response rating (pigweed; [5]): 0 | Plant response rating, Redroot pigweed (pigweed; [6]): 1 | Redroot pigweed plant response rating (pigweed; [7]): 2 | Cocklebur plant response rating (cocklebur; [1]): 0 | Cocklebur plant response rating (cocklebur; [2]): 0 | Plant response rating, Cocklebur (cocklebur; [3]): 0 | Cocklebur plant response rating (cocklebur; [8]): 0 | Cocklebur plant response rating (cocklebur; [4]): 0 | Cocklebur plant response rating (cocklebur; [5]): 0 | Plant response rating, Cocklebur (cocklebur; [6]): 0 | Cocklebur plant response rating (cocklebur; [7]): 0 | Nutsedge plant response rating (purple nutsedge; [1]): 0 | Nutsedge plant response rating (purple nutsedge; [4]): 0 | Nutsedge plant response rating (purple nutsedge; [5]): 0 | Plant response rating, Nutsedge (purple nutsedge; [6]): 0 | Nutsedge plant response rating (purple nutsedge; [7]): 0 | Bedstraw plant response rating (bedstraw; [1]): 0 | Bedstraw plant response rating (bedstraw; [2]): 0 | Plant response rating, Bedstraw (bedstraw; [3]): 0 | Bedstraw plant response rating (bedstraw; [8]): 0 | Bedstraw plant response rating (bedstraw; [4]): 0 | Bedstraw plant response rating (bedstraw; [5]): 0 | Plant response rating, Bedstraw (bedstraw; [6]): 3 | Bedstraw plant response rating (bedstraw; [7]): 3 | Morningglory plant response rating (morningglory; [1]): 0 | Morningglory plant response rating (morningglory; [2]): 0 | Plant response rating, Morningglory (morningglory; [3]): 0 | Morningglory plant response rating (morningglory; [4]): 6 | Morningglory plant response rating (morningglory; [5]): 0 | Plant response rating, Morningglory (morningglory; [6]): 6 | Morningglory plant response rating (morningglory; [7]): 8 | Corn plant response rating (corn; [1]): 0 | Corn plant response rating (corn; [2]): 0 | Plant response rating, Corn (corn; [3]): 0 | Corn plant response rating (corn; [8]): 0 | Corn plant response rating (corn; [4]): 0 | Corn plant response rating (corn; [5]): 0 | Plant response rating, Corn (corn; [6]): 0 | Corn plant response rating (corn; [7]): 0 | Crabgrass plant response rating (crabgrass; [1]): 3 | Crabgrass plant response rating (crabgrass; [2]): 6 | Plant response rating, Crabgrass (crabgrass; [3]): 7 | Crabgrass plant response rating (crabgrass; [4]): 0 | Crabgrass plant response rating (crabgrass; [5]): 4 | Plant response rating, Crabgrass (crabgrass; [6]): 6 | Crabgrass plant response rating (crabgrass; [7]): 7 | Ducksalad plant response rating (duck salad; [9]): 0 | Ducksalad plant response rating (duck salad; [10]): 0 | Ducksalad plant response rating (duck salad; [11]): 0 | Ducksalad plant response rating (duck salad; [12]): 0 | Velvetleaf plant response rating (velvetleaf; [1]): 0 | Velvetleaf plant response rating (velvetleaf; [2]): 0 | Plant response rating, Velvetleaf (velvetleaf; [3]): 3 | Velvetleaf plant response rating (velvetleaf; [4]): 0 | Velvetleaf plant response rating (velvetleaf; [5]): 0 | Plant response rating, Velvetleaf (velvetleaf; [6]): 0 | Velvetleaf plant response rating (velvetleaf; [7]): 0 | Blackgrass plant response rating (blackgrass; [2]): 10 | Plant response rating, Blackgrass (blackgrass; [3]): 10 | Blackgrass plant response rating (blackgrass; [8]): 0 | Blackgrass plant response rating (blackgrass; [4]): 1 | Blackgrass plant response rating (blackgrass; [5]): 6 | Plant response rating, Blackgrass (blackgrass; [6]): 4 | Blackgrass plant response rating (blackgrass; [7]): 8 | Rape plant response rating (rape; [1]): 0 | Rape plant response rating (rape; [2]): 1 | Plant response rating, Rape (rape; [3]): 10 | Rape plant response rating (rape; [4]): 0 | Rape plant response rating (rape; [5]): 0 | Plant response rating, Rape (rape; [6]): 0 | Rape plant response rating (rape; [7]): 0 | Wild oats plant response rating (wild oat; [1]): 0 | Wild oats plant response rating (wild oat; [2]): 4 | Plant response rating, Wild oats (wild oat; [3]): 6 | Wild oats plant response rating (wild oat; [4]): 0 | Plant response rating, Wild oats (wild oat; [6]): 0 | Wild oats plant response rating (wild oat; [7]): 0 | B. signalgrass plant response rating (surinam grass; [1]): 4 | B. signalgrass plant response rating (surinam grass; [2]): 10 | Plant response rating, B. signalgrass (surinam grass; [3]): 10 | B. signalgrass plant response rating (surinam grass; [8]): 0 | B. signalgrass plant response rating (surinam grass; [4]): 0 | B. signalgrass plant response rating (surinam grass; [5]): 7 | Plant response rating, B. signalgrass (surinam grass; [6]): 0 | B. signalgrass plant response rating (surinam grass; [7]): 0 | Wheat plant response rating (wheat; [1]): 0 | Wheat plant response rating (wheat; [2]): 0 | Plant response rating, Wheat (wheat; [3]): 3 | Wheat plant response rating (wheat; [4]): 0 | Wheat plant response rating (wheat; [5]): 0 | Plant response rating, Wheat (wheat; [6]): 0 | Wheat plant response rating (wheat; [7]): 0 | Sugarbeets plant response rating (sugar beet; [1]): 0 | Sugarbeets plant response rating (sugar beet; [2]): 1 | Plant response rating, Sugarbeets (sugar beet; [3]): 7 | Sugarbeets plant response rating (sugar beet; [4]): 0 | Sugarbeets plant response rating (sugar beet; [5]): 1 | Plant response rating, Sugarbeets (sugar beet; [6]): 2 | Sugarbeets plant response rating (sugar beet; [7]): 2 | S. Flatsedge plant response rating (smallflower flatsedge; [9]): 0 | S. Flatsedge plant response rating (smallflower flatsedge; [10]): 0 | S. Flatsedge plant response rating (smallflower flatsedge; [11]): 0 | S. Flatsedge plant response rating (smallflower flatsedge; [12]): 0
